Test results published in PMC9785202, “Changes in Disposition of Ezetimibe and Its Active Metabolites Induced by Impaired Hepatic Function: The Influence of Enzyme and Transporter Activities” (Pharmaceutics, 2022).
Read-outs that look alike come from different tables or passages of the source.

T1: OATP1B3 (Homo sapiens, UniProt Q9NPD5)
T1 sequence (Q9NPD5 1-702): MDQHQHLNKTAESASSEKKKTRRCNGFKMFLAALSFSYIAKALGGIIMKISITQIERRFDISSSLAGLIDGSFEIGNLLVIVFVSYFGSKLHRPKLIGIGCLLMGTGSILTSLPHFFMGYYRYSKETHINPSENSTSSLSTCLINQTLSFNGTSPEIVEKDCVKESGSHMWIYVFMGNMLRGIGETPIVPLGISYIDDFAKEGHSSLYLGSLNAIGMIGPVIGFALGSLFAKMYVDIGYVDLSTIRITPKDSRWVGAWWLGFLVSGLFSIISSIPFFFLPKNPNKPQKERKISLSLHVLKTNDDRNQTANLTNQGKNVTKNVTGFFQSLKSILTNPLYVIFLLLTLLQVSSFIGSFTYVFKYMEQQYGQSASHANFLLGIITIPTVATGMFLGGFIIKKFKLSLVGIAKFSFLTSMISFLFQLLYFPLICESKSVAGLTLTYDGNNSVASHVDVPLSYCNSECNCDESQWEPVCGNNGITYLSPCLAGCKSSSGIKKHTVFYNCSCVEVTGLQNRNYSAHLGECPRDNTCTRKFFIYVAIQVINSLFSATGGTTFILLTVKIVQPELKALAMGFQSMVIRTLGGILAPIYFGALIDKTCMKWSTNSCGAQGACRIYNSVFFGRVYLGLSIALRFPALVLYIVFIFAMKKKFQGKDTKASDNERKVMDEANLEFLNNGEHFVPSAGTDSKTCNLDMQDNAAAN


How the values were obtained:
[1] = test system: rat primary hepatocytes; assay: Inhibition of EZE-Ph uptake into rat primary hepatocytes by bile acids and rifampicin; details: 10 μM EZE-Ph, 10 min
Experimental: Rat primary hepatocytes were isolated from male SD rats as previously described [34]. Fresh rat hepatocytes (120,000 per well) were cultured in Williams’ E medium (containing 0.1 μM dexamethasone, 5% fetal bovine serum, 1% penicillin G/streptomycin, 1% GlutaMAX-I, and 1% insulin–transferrin–selenium) on collagen I-coated 48-well plates. Rat hepatocytes cultured for 4 h under a carbogen atmosphere were directly used for uptake assays.
The hepatocytes were rinsed three times with HBSS (37 °C) and equilibrated in HBSS for 10 min. […] After 10 min of incubation, cells were quickly washed three times with ice-cold HBSS and then lysed by the addition of 300 μL of purified water. The protein content was measured using the BCA protein assay kit. EZE and EZE-Ph were analyzed by LC-MS/MS.
The rates of substrate uptake were normalized using the protein contents of cell lysates.

[2] = molecular target: T1, OATP1B3; assay: Inhibition of OATP1B3-mediated uptake in OATP1B3-transfected HEK293 cells by bile acids and rifampicin
[3] = test system: UGTs; assay: Inhibition of EZE glucuronidation by bile acids in rat liver S9; format: in vitro ADME; details: liver S9 fractions, pH 7.4, probe EZE (ezetimibe), 3 μM; formation of EZE-Ph; rat liver S9, 3 μM EZE, bile acids up to 100 μM; read-out: inhibition of EZE-Ph generation
Experimental: To evaluate the effect of hepatic impairment on the hepatic metabolism of EZE, 0.3 μM, 3 μM, and 30 μM EZE were incubated with rat liver S9 fractions (2 mg of protein/mL) at 37 °C for 60 min in the Tris-HCl-buffered system (100 mM, pH 7.4), consisting of UDPGA (1 mM), MgCl2 (10 mM), and alamethicin (25 μg/mL). To investigate the effect of bile acids on the metabolism of EZE in the liver, 3 μM EZE was incubated with rat or human liver S9 fractions (2 mg of protein/mL) at 37 °C for 60 min in the Tris-HCl-buffered system with or without bile acids at 1, 10, and 100 μM. The total volume of the incubation system was 100 μL. The reactions were terminated by adding 100 μL of ice-cold acetonitrile. Samples were stored at −20 °C until analysis. EZE and EZE-Ph were detected by liquid chromatography with tandem mass spectrometry (LC-MS/MS).

[4] = patients with moderate CLD; cited from earlier work
[5] = molecular target: T1, OATP1B3
[6] = substrate: O=C(O)C1OC(Oc2ccc([C@@H]3[C@@H](CC[C@H](O)c4ccc(F)cc4)C(=O)N3c3ccc(F)cc3)cc2)C(O)C(O)C1O; assay: Uptake of EZE-Ph into OAT3-transfected HEK293 cells; format: in vitro ADME, human; details: other: OAT3 HEK293, uptake time 5 min; 37.0 °C
Experimental: The kinetic parameters and the half inhibitory concentration (IC50) were calculated using GraphPad Prism. […] The intrinsic clearance (CLint) was calculated as CLint = Vmax/Km.

Row | Molecule | EZE-Ph uptake by rat hepatocytes in the presence of inhibitor ([1]; inhibitor 1 μM) [%] | EZE-Ph uptake by rat hepatocytes in the presence of inhibitor ([1]; inhibitor 100 μM) [%] | IC50 [2] [µM] | inhibition at 60 min [3] [%] | other results
1 | C[C@H](CCC(=O)NCC(=O)O)[C@H]1CC[C@H]2[C@@H]3[C@H](O)C[C@@H]4C[C@H](O)CC[C@]4(C)[C@H]3C[C@H](O)[C@]12C [GCA, glycocholic acid] | 109 | 16.3 | 79.7 | < 40 | EZE-Ph uptake by rat hepatocytes in the presence of inhibitor ([1]; inhibitor 10 μM): 64.1%
2 | C[C@H](CCC(=O)NCCS(=O)(=O)O)[C@H]1CC[C@H]2[C@@H]3[C@H](O)C[C@@H]4C[C@H](O)CC[C@]4(C)[C@H]3C[C@H](O)[C@]12C [TCA, taurocholic acid] | 94.1 | 13.9 | 93.1 | < 40 | 
3 | C=CCN1CC[C@]23c4c5ccc(O)c4O[C@H]2C(=O)CC[C@@]3(O)[C@H]1C5 [Naloxone] |  |  |  |  | decrease of clearance [4]: over 50%
4 | C[C@H](CCC(=O)NCCS(=O)(=O)O)[C@H]1CC[C@H]2[C@@H]3[C@H](O)C[C@@H]4C[C@H](O)CC[C@]4(C)[C@H]3CC[C@]12C [TCDCA, taurochenodeoxycholic acid] |  |  |  |  | IC50 [5]: 7.94 µM
5 | OAT3 (Homo sapiens) (protein, host or cells: HEK293) MTFSEILDRVGSMGHFQFLHVAILGLPILNMANHNLLQIFTAATPVHHCRPPHNASTGPWVLPMGPNGKPERCLRFVHPPNASLPNDTQRAMEPCLDGWVYNSTKDSIVTEWDLVCNSNKLKEMAQSIFMAGILIGGLVLGDLSDRFGRRPILTCSYLLLAASGSGAAFSPTFPIYMVFRFLCGFGISGITLSTVILNVEWVPTRMRAIMSTALGYCYTFGQFILPGLAYAIPQWRWLQLTVSIPFFVFFLSSWWTPESIRWLVLSGKSSKALKILRRVAVFNGKKEEGERLSLEELKLNLQKEISLAKAKYTASDLFRIPMLRRMTFCLSLAWFATGFAYYSLAMGVEEFGVNLYILQIIFGGVDVPAKFITILSLSYLGRHTTQAAALLLAGGAILALTFVPLDLQTVRTVLAVFGKGCLSSSFSCLFLYTSELYPTVIRQTGMGVSNLWTRVGSMVSPLVKITGEVQPFIPNIIYGITALLGGSAALFLPETLNQPLPETIEDLENWSLRAKKPKQEPEVEKASQRIPLQPHGPGLGSS |  |  |  |  | Km [6]: 166 µM; Vmax [6]: 0.000306 µmol/min/mg; Vmax/Km [6]: 1.84 µL/min/mg
